From ChEMBL document CHEMBL3758105 (J Med Chem, 2016)
Values after ≈ are worked out from the molar mass of the structure shown. Each block holds one compound with its values, some of them ahead of it.

Assays:
[1] = molecular target: T1, Organic anion transporter 3 (Homo sapiens, UniProt Q8TCC7); assay: Inhibition of human OAT3 expressed in HEK cells assessed as reduction of [3H]-estrone sulfate uptake by radioactivity counting analysis; assay type: cell-based, HEK293
T1 sequence (Q8TCC7 whole entry): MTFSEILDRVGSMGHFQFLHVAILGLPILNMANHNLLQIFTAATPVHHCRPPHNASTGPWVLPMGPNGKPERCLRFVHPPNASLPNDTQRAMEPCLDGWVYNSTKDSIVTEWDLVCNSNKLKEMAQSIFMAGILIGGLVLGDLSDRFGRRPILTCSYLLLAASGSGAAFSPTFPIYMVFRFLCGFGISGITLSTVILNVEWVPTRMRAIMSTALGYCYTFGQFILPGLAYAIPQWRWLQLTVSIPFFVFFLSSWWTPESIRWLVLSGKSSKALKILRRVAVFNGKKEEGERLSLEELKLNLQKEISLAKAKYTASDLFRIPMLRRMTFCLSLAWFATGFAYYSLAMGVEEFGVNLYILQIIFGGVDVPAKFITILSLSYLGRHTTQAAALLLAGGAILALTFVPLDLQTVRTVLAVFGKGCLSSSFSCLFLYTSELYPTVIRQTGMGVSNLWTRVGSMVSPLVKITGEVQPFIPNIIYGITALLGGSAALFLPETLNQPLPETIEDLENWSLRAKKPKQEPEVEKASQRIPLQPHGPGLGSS

Collagenase 3 = Collagenase 3 (Homo sapiens, UniProt P45452); assay: Inhibition of full length human recombinant MMP13 using MCA-Arg-Pro-Leu-Gly-Leu-Dpa-Ala-Arg-Glu-Arg-NH2 as substrate preincubated for 60 mins followed by substrate addition by fluorescence assay
Stromelysin-1 = Stromelysin-1 (Homo sapiens, UniProt P08254); assay: Inhibition of MMP3 (unknown origin) catalytic domain using MCA-Arg-Pro-Leu-Gly-Leu-Dpa-Ala-Arg-Glu-Arg-NH2 as substrate preincubated for 60 mins followed by substrate addition by fluorescence assay
[2] = Half life of the compound assessed as compound rearrangement; assay type: physicochemical
[3] = Clearance in Sprague-Dawley rat at 1 mg/kg, iv administered as bolus dose by LC-MS/MS analysis; assay type: ADME, organism-based; settings: in vivo
physchem = settings: buffer, pH 7.4
[4] = Intrinsic clearance in human liver microsomes measured over 40 mins by HPLC/MS analysis; assay type: ADME; settings: read-out: CLH
[5] = Intrinsic clearance in rat liver microsomes measured over 40 mins by HPLC/MS analysis; assay type: ADME; settings: read-out: CLH
CYP2C9 = CYP2C9 (Homo sapiens, UniProt P11712); assay: Inhibition of CYP2C9 in human liver microsomes assessed as reduction of diclofenac metabolism at 3 uM after 8 mins; assay type: ADME; settings: probe diclofenac
[6] = Clearance in Sprague-Dawley rat at 0.2 mg/kg, iv administered as cassette bolus dose by LC-MS/MS analysis; assay type: ADME, organism-based; settings: in vivo
[7] = Plasma protein binding in beagle dog at 1 mg/kg, po administered as cassette dosing; assay type: ADME, organism-based, Canis lupus familiaris; settings: read-out: PPB (converted)
[8] = Thermodynamic solubility of the compound in crystalline solid form in phosphate buffer at pH 7.4; assay type: physicochemical; settings: read-out: Therm_solubility
[9] = Plasma protein binding in human; assay type: ADME, cell-free; settings: read-out: PPB (converted)
Canis familiaris [10] = assay: Free AUC in beagle dog at 1 mg/kg, po administered as cassette dosing; assay type: ADME, organism-based, Canis lupus familiaris; settings: in vivo
[11] = Oral bioavailability in Sprague-Dawley rat at 1 mg/kg; assay type: ADME, organism-based; settings: in vivo
Canis familiaris [12] = assay: Free Cmax in beagle dog at 1 mg/kg, po administered as cassette dosing; assay type: ADME, organism-based, Canis lupus familiaris; settings: in vivo
[13] = molecular target: Matrix metalloproteinase-14 (Homo sapiens, UniProt P50281); assay: Inhibition of MMP14 (unknown origin) catalytic domain using MCA-Arg-Pro-Leu-Gly-Leu-Dpa-Ala-Arg-Glu-Arg-NH2 as substrate preincubated for 60 mins followed by substrate addition by fluorescence assay

Stromelysin-1, sequence (P08254 whole entry, the tested form may be a part): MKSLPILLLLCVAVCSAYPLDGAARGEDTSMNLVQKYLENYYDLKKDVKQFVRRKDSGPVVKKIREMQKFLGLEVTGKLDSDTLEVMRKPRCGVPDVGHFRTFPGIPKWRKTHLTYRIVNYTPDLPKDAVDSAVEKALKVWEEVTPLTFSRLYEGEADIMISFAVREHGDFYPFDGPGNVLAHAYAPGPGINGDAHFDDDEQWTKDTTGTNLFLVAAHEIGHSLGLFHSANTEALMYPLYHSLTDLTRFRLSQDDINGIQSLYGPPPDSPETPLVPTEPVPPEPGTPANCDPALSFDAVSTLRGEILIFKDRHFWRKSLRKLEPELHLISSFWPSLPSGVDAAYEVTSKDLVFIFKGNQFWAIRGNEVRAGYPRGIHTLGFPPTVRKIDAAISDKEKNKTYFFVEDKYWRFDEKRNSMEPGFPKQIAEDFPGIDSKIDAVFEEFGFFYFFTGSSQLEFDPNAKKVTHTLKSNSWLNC
CYP2C9, sequence (P11712 whole entry): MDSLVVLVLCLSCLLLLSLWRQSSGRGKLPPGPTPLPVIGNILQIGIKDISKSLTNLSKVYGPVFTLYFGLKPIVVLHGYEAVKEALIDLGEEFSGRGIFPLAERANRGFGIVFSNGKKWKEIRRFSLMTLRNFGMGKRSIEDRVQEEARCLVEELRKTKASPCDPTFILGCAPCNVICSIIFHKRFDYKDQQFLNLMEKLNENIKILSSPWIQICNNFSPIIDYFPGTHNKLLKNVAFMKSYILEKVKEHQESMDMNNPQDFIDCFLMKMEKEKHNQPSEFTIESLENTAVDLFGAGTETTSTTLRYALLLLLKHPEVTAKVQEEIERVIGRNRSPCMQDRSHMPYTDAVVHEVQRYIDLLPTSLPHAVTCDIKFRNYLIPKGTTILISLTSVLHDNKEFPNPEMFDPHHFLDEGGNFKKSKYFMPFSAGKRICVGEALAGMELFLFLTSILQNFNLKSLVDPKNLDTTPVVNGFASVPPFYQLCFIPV

Compound: COc1ccc(CNC(=O)c2cc3c(=O)n(Cc4ccc(C(=O)O)cc4)cnc3cn2)cc1
IC50 [1]: 59000 nM

Compound: COc1cccc(CNC(=O)c2cc(-c3nnn(CC4CCCOC4)n3)cc(C)n2)c1 (racemic)
Ki (Collagenase 3): 16.5 nM
Ki (Stromelysin-1): > 10000 nM

Compound: O=C(O)Cc1ccccc1Nc1c(Cl)cccc1Cl [DICLOFENAC]
half-life [2]: 0.5 h

Compound: COc1cccc(CNC(=O)c2cc(-c3nnn(CC4CCCCC4)n3)cc(C)n2)c1
Ki (Collagenase 3): 33.6 nM
clearance [3]: 63.5 mL/min/kg
Ki (Stromelysin-1): > 10000 nM
logD (physchem): 4.37
microsomal CLint [4]: 41.7 µL/min/mg
microsomal CLint [5]: 98.5 µL/min/mg

Compound: Cc1cc(-c2nnn(C[C@H]3CC[C@H](CO)CC3)n2)cc(C(=O)NCc2cccc(C(F)(F)F)c2)n1
Ki (Collagenase 3): 23.8 nM
inhibition at 8 min, 3 µM (CYP2C9): 94%

Compound: Cn1c(=O)n(Cc2ccc(C(=O)O)cc2)c(=O)c2cc(C#CCc3ccccc3)ccc21
IC50 [1]: 18000 nM

Compound: Cc1cc(-c2nnn(C[C@H]3CC[C@H](C(=O)O)CC3)n2)cc(C(=O)NCc2ccc(F)cc2)n1
half-life [2]: 67 h
IC50 [1]: 6000 nM

Compound: Cc1cc(-c2nnn(C[C@H]3CC[C@H](CO)CC3)n2)cc(C(=O)NCc2ccccc2)n1
Ki (Collagenase 3): 119 nM
inhibition at 8 min, 3 µM (CYP2C9): 78%

Compound: Cc1cc(-c2nnn(C[C@H]3CC[C@H](CO)CC3)n2)cc(C(=O)NCc2ccc(F)c(F)c2)n1
Ki (Collagenase 3): 29.3 nM
inhibition at 8 min, 3 µM (CYP2C9): 83%

Compound: COc1cccc(CNC(=O)c2cc(-c3nnn(CC4COCCO4)n3)cc(C)n2)c1 (racemic)
Ki (Collagenase 3): 14.1 nM
clearance [3]: 25.8 mL/min/kg
Ki (Stromelysin-1): > 10000 nM
logD (physchem): 2.49
microsomal CLint [4]: < 8 µL/min/mg
microsomal CLint [5]: 74 µL/min/mg

Compound: Cc1cc(-c2nnn(C[C@H]3CC[C@H](CO)CC3)n2)cc(C(=O)NCc2ccc(F)cc2)n1
Ki (Collagenase 3): 32.9 nM
inhibition at 8 min, 3 µM (CYP2C9): 56%

Compound: COc1cccc(CNC(=O)c2cc(-c3nnn(C[C@H]4CO[C@H](CO)CO4)n3)cc(C)n2)c1 (racemic)
fraction unbound [7]: 0.24
Ki (Collagenase 3): 11.7 nM
clearance [3]: 7.7 mL/min/kg
Ki (Stromelysin-1): > 10000 nM
solubility thermodynamic [8]: 28 µM (≈ 12.7 µg/mL)
fraction unbound [9]: 0.14
logD (physchem): 2.04
fAUC (Canis familiaris [10]): 1.23 µM·h
bioavailability [11]: 48%
microsomal CLint [4]: < 8 µL/min/mg
fCmax (Canis familiaris [12]): 66 nM
microsomal CLint [5]: 15.7 µL/min/mg

Compound: COc1cccc(CNC(=O)c2cc(-c3nnn(C[C@H]4CC[C@H](C(=O)O)CC4)n3)cc(C)n2)c1
Ki (Stromelysin-1): > 10000 nM

Compound: COc1cccc(CNC(=O)c2cc(-c3nnn(CC4CCCCO4)n3)cc(C)n2)c1 (single isomer, unassigned; (+))
Ki (Collagenase 3): 16.8 nM
Ki (Stromelysin-1): > 10000 nM

Compound: COc1cccc(CNC(=O)c2cc(-c3nnn(C[C@H]4CC[C@@H](O)CC4)n3)cc(C)n2)c1
Ki (Collagenase 3): 10.9 nM
Ki (Stromelysin-1): > 10000 nM

Compound: COc1cccc(CNC(=O)c2cc(-c3nnn(CC4CCN(C(C)=O)CC4)n3)cc(C)n2)c1
Ki (Collagenase 3): 16.6 nM
Ki (Stromelysin-1): > 10000 nM

Compound: Cc1cc(-c2nnn(C[C@H]3CC[C@H](CO)CC3)n2)cc(C(=O)NCc2cccc(Cl)c2)n1
Ki (Collagenase 3): 38.5 nM

Compound: COc1cccc(CNC(=O)c2cc(-c3nnn(C[C@H]4CC[C@H](C(N)=O)CC4)n3)cc(C)n2)c1
Ki (Collagenase 3): 21.2 nM

Compound: Cc1cc(-c2nnn(C[C@H]3CC[C@H](CO)CC3)n2)cc(C(=O)NCc2cccc(F)c2)n1
Ki (Collagenase 3): 110 nM

Compound: Cc1cccc(CNC(=O)c2cc(-c3nnn(C[C@H]4CC[C@H](CO)CC4)n3)cc(C)n2)c1
Ki (Collagenase 3): 47.2 nM
inhibition at 8 min, 3 µM (CYP2C9): 93%

Compound: CNC(=O)[C@@H](NC(=O)[C@H](CC(C)C)[C@H](O)C(=O)NO)C(C)(C)C
IC50 [13]: 10000 nM

The remaining compounds from weak to strong by Ki (Collagenase 3), led by results:

Ki (Collagenase 3): 8.2 nM
Ki (Stromelysin-1): > 10000 nM
Compound: COc1cccc(CNC(=O)c2cc(-c3nnn(C[C@H]4CC[C@@H](NS(C)(=O)=O)CC4)n3)cc(C)n2)c1

Ki (Collagenase 3): 7.7 nM
clearance [3]: 54.5 mL/min/kg
logD (physchem): 3.22
microsomal CLint [4]: 53.1 µL/min/mg
microsomal CLint [5]: 192 µL/min/mg
Compound: COc1cccc(CNC(=O)c2cc(-c3nnn(CC4CCCCO4)n3)cc(C)n2)c1 (single isomer, unassigned; (-))

Ki (Collagenase 3): 6.3 nM
inhibition at 8 min, 3 µM (CYP2C9): 90%
Compound: Cc1cc(-c2nnn(C[C@H]3CC[C@H](CO)CC3)n2)cc(C(=O)NCc2ccc(F)c(C(F)(F)F)c2)n1

Ki (Collagenase 3): 5.8 nM
Ki (Stromelysin-1): > 10000 nM
Compound: COc1cccc(CNC(=O)c2cc(-c3nnn(CC4CCN(S(C)(=O)=O)CC4)n3)cc(C)n2)c1

fraction unbound [7]: 0.37
Ki (Collagenase 3): 5.8 nM
clearance [3]: 10.6 mL/min/kg
Ki (Stromelysin-1): > 10000 nM
solubility thermodynamic [8]: 237 µM (≈ 108 µg/mL)
fraction unbound [9]: 0.31
fAUC (Canis familiaris [10]): 3.24 µM·h
bioavailability [11]: 65%
microsomal CLint [4]: < 8 µL/min/mg
fCmax (Canis familiaris [12]): 580 nM
Compound: COc1cccc(CNC(=O)c2cc(-c3nnn(C[C@H]4CO[C@H](CO)CO4)n3)nc(C)n2)c1 (racemic)

Ki (Collagenase 3): 4.5 nM
Ki (Stromelysin-1): > 10000 nM
Compound: COc1cccc(CNC(=O)c2cc(-c3nnn(C[C@H]4CC[C@H](O)CC4)n3)cc(C)n2)c1

Ki (Collagenase 3): 4.2 nM
clearance [3]: 9.8 mL/min/kg
Ki (Stromelysin-1): > 10000 nM
bioavailability [11]: 113%
microsomal CLint [4]: < 8 µL/min/mg
Compound: COc1cc(CNC(=O)c2cc(-c3nnn(C[C@@H]4CO[C@@H](CO)CO4)n3)nc(C)n2)ccc1F

Ki (Collagenase 3): 4.1 nM
Ki (Stromelysin-1): 8730 nM
Compound: COc1cccc(CNC(=O)c2cc(-c3nnn(C[C@H]4CC[C@@H](CO)CC4)n3)cc(C)n2)c1

Ki (Collagenase 3): 4 nM
inhibition at 8 min, 3 µM (CYP2C9): 90%
Compound: Cc1cc(-c2nnn(C[C@H]3CC[C@H](CO)CC3)n2)cc(C(=O)NCc2ccc(F)c(Cl)c2)n1

Ki (Collagenase 3): 3.8 nM
inhibition at 8 min, 3 µM (CYP2C9): 96%
Compound: Cc1cc(-c2nnn(C[C@H]3CC[C@H](CO)CC3)n2)cc(C(=O)NCc2ccc(F)c(C)c2)n1

Ki (Collagenase 3): 2.7 nM
Ki (Stromelysin-1): 7210 nM
Compound: COc1cccc(CNC(=O)c2cc(-c3nnn(C[C@H]4CC[C@H](C#N)CC4)n3)cc(C)n2)c1

Ki (Collagenase 3): 2.1 nM
clearance [3]: 76.6 mL/min/kg
Ki (Stromelysin-1): > 10000 nM
logD (physchem): 3.57
microsomal CLint [4]: 32.7 µL/min/mg
microsomal CLint [5]: 94.9 µL/min/mg
inhibition at 8 min, 3 µM (CYP2C9): 66%
Compound: COc1cccc(CNC(=O)c2cc(-c3nnn(C[C@H]4CC[C@H](CO)CC4)n3)cc(C)n2)c1

Ki (Collagenase 3): 2 nM
Ki (Stromelysin-1): > 10000 nM
microsomal CLint [4]: 24.7 µL/min/mg
clearance [6]: 77.6 mL/min/kg
Compound: COc1cccc(CNC(=O)c2cc(-c3nnn(C[C@H]4CC[C@H](NC(C)=O)CC4)n3)cc(C)n2)c1

Ki (Collagenase 3): 1.4 nM
Ki (Stromelysin-1): > 10000 nM
Compound: COc1cccc(CNC(=O)c2cc(-c3nnn(C[C@H]4CC[C@@H](NC(C)=O)CC4)n3)cc(C)n2)c1

Ki (Collagenase 3): 1.2 nM
inhibition at 8 min, 3 µM (CYP2C9): 39%
Compound: COc1cc(CNC(=O)c2cc(-c3nnn(C[C@H]4CC[C@H](CO)CC4)n3)cc(C)n2)ccc1F

Ki (Collagenase 3): 0.25 nM
Ki (Stromelysin-1): > 10000 nM
microsomal CLint [4]: < 8 µL/min/mg
clearance [6]: 42.6 mL/min/kg
Compound: COc1cccc(CNC(=O)c2cc(-c3nnn(C[C@H]4CC[C@H](NS(C)(=O)=O)CC4)n3)cc(C)n2)c1
